Broadly, the melting point is the temperature, or range, at which the solid turns liquid. In turn, `O=Cc1cc2ccccc2n1S(=O)(=O)c1ccccc1` gave a melting point of 111 to 112 °C.

`Nc1ccc(Br)nn1` came in with a melting point of 194 °C.

`COc1cc(C)c2c(=O)c(-c3ccccc3)coc2c1` registered a melting point of 116 to 120 °C.

In the case of `S=c1oc(-c2cc3ccccc3o2)nn1CCl`, the melting point was found to be 300 °C.

Take `CCN(C(C)=O)c1ccccc1`: the melting point is 55 °C.

In turn, `OCC1OC(OC2OC(CO)C(O)C(O)C2O)C(O)C(O)C1O` (centres undefined) showed a melting point of 203 °C.

Compound `CC(O)C(C)C(C)(C)C` (centres undefined) yielded a melting point of 27 °C.

On to `COC(=O)c1cc(Cl)cc(Cl)c1`, for which the melting point stood at 59 °C.

Take `N#Cc1ccnc(I)c1`: the melting point amounted to 79 °C.

For the compound `O=c1c(=O)c2cc(Cl)c(Cl)cc12`, the melting point was determined as 183 °C.

As to `Cc1ccc(C=Nc2n[nH]c(N=Cc3ccc(C)cc3)c2Cc2ccc(Cl)cc2)cc1`, the melting point lay within 248 to 250 °C.

The compound `N#CC1(c2ccc(F)cc2)CCC(=O)CC1` yielded a melting point of 93 °C.

Consider `CC(C)(C)C(O)C(C)(C)C`, for which the melting point is 50 °C.

For `CNCc1c(C)nc2ccccn12`, the melting point is 73 to 75 °C.

The compound `O=C1C(c2ccccc2)C(c2ccccc2)N1c1ccccc1` (centres undefined) displayed a melting point of 134 °C.

In turn, `CCOC(=O)c1cnc(NCc2ccccc2)s1` gave a melting point of 136 to 143 °C.

With `N#Cc1c(N)cc(N)nc1Br`, the melting point amounted to 257 °C.

As to `CCCC(c1ccc(O)cc1)c1ccc(O)cc1`, the melting point turned out to be 137 °C.

With `CCOC(=O)C(CCC#N)(CCC#N)C(=O)OCC`, the melting point amounted to 62 °C.

Compound `O=[N+]([O-])c1ccc(-c2ccccc2)cc1` returned a melting point of 114 °C.

For the compound `COc1ccc(C2C3=C(CCCC3)OC3=C2CCCC3)cc1`, the melting point is 104 °C.

Turning to `Cc1cc2ccccc2nc1Cl`, the melting point lay in the range of 83 to 84 °C.

`CCC(C)C(C)(COC(N)=O)COC(N)=O` (centres undefined): the melting point is 77 °C.

In turn, `NC(=O)C1CO1` (centres undefined) had a melting point of 33 °C.

`CCCCCCCCCCCCCCCBr` showed a melting point of 19 °C.

`CCOC(=O)c1[nH]nc(C)c1C(=O)OCC` registered a melting point of 98 to 99 °C.

The compound `CC(C)(Oc1ccc(C(C)(C)C)cc1)C(=O)O` displayed a melting point of 97 to 98 °C.

Consider `CC1(C)OC(=O)C(=NNc2ccc(Br)cc2)C(=O)O1`, for which the melting point fell in the range of 259 to 260 °C.

As to `CC(C)(C)Oc1ncc(Br)cn1`, the melting point is 62 °C.

`OC1CCCCCCCCCCCCCC1`: the melting point was found to be 80.5 °C.

Compound `CCCCC(CC)COC(=O)CCCCCCCCC(=O)OCC(CC)CCCC` (centres undefined) came in with a melting point of -48 °C.

`ClC(Cl)(Cl)c1ccc(C(Cl)(Cl)Cl)cc1` showed a melting point of 109 °C.

As for `FC(Cl)C(Cl)(Cl)Cl` (centres undefined), the melting point is -95.3 °C.

For the compound `O=C(O)Cc1cccs1`, the melting point is 63 °C.

In turn, `COc1ccc(C(=O)O)cc1C` gave a melting point of 195 to 197 °C.

In turn, `CSc1ccc(I)cc1` had a melting point of 40 to 42 °C.

Consider `CCCCC/C=C\Br`, for which the melting point is -98 °C.

For the compound `O=C(O)C(O)C(O)C(O)C(O)C(=O)O` (centres undefined), the melting point was 230 °C.

In turn, `Nc1c2c(nc3ccccc13)CCCC2` came in with a melting point of 184 °C.

The compound `CCOC(CN1C(=O)c2ccccc2C1=O)OCC` gave a melting point of 72 to 74 °C.

`CCOC(=O)c1cc(-c2ccc(Cl)cc2)oc1C=O` came in with a melting point of 188 °C.

`CC(C)(C)OC(=O)C=P(c1ccccc1)(c1ccccc1)c1ccccc1`: the melting point was 146 to 151 °C.

Take `O=C(NCc1ccccc1)C(C(F)(F)F)C(F)(F)F`: the melting point was 194 °C.

With `C1=Cc2ccccc2CC1`, the melting point is -8 °C.

The compound `Cc1cc2c(C#N)c3sc4ccccc4n3c(=O)c2c(C)n1` showed a melting point of 287 °C.

With `O=CCCCC=O`, the melting point is -6 °C.

`Cc1ccc2ncccc2c1` displayed a melting point of -22 °C.

In the case of `Cc1cc(C)c2c(=O)n(-c3ccc(Br)cc3)c(S)nc2n1`, the melting point fell in the range of 335 to 337 °C.

For `NC(=O)NC=O`, the melting point is 170 to 173 °C.

The compound `Cc1cc(C(C)(C)C)cc(C(C)(C)C)c1O` registered a melting point of 51 °C.

`CCCCC(CC)CNCC(CC)CCCC` (centres undefined): the melting point is -60 °C.

In turn, `CCCCCCCCCCCCCC(C)CC` (centres undefined) gave a melting point of -15 °C.

`COc1cc(OC)cc(C(C)=O)c1` came in with a melting point of 40 °C.

`Cc1ccc(N2C(=O)C=CC2=O)cc1Cl` returned a melting point of 143 °C.

Turning to `O=C(O)CCNC(=O)OCC1c2ccccc2-c2ccccc21`, the melting point lay within 144 to 148 °C.

Consider `COc1ccc(NC(=S)c2cc(C(C)(C)C)c(O)c(C(C)(C)C)c2)cc1`, for which the melting point is 128 to 129 °C.

`Nc1ccc(Oc2ccc(Br)cc2)nc1` yielded a melting point of 107 to 109 °C.

For the compound `O=C1OC(c2ccccc2)=N/C1=C/c1ccc(-c2ccc(Br)cc2)o1`, the melting point came to 180 °C.

Turning to `NC(=S)Nc1ccccn1`, the melting point lay within 148 to 150 °C.

For the compound `CC1C(=O)C23C4CC5C(C)(C)CCC(O)C56COC(CC1C2OC(C)(C)O4)C63` (centres undefined), the melting point was 204 °C.

As to `Cc1cc(Cl)cc(Cl)c1N=C=S`, the melting point was in the range of 57 to 58 °C.

Consider `OCC1(c2ccc(Cl)cc2)CC1`, for which the melting point is 50 to 54 °C.

In turn, `Nc1cc(C(Cl)=C(Cl)Cl)c(S(N)(=O)=O)cc1S(N)(=O)=O` registered a melting point of 203 °C.

For the compound `C[C@]12CCC(=O)C[C@@H]1CCC1=C2CC[C@@H]2C(=O)CC[C@H]12`, the melting point fell in the range of 137 to 138 °C.

As to `COc1ccccc1C(N)=O`, the melting point was found to be 129 °C.

Turning to `Cc1cc(Br)ccc1N=C=O`, the melting point was determined as 49 °C.

Take `Cc1cc(Oc2ncccc2[N+](=O)[O-])cc(C)c1Cl`: the melting point lay within 80 to 82 °C.

For the compound `Clc1cc(Cl)cc(Br)c1`, the melting point is 83 °C.

`COc1cc(/C=C/c2ccc([N+](=O)[O-])cc2[N+](=O)[O-])ccc1O` gave a melting point of 191 °C.

`C1CSCSC1` had a melting point of 54 °C.

Compound `COc1cc2nc[nH]c(=O)c2cc1OC` yielded a melting point of 250 °C.

In the case of `CC(=O)c1cccc(N=C=O)c1`, the melting point fell in the range of 33 to 34 °C.

In turn, `O=S(=O)(Cl)c1cc(Br)c(Cl)s1` registered a melting point of 63 to 65 °C.

Compound `Cc1ccc(C(=O)C=CC(=O)O)cc1` showed a melting point of 139 °C.

`CCOC(=O)c1c(C)[nH]c(=O)[nH]c1=S` yielded a melting point of 150 °C.

In turn, `C(=C(\Oc1ccccc1)c1nc2ccccc2s1)/c1ccc2c(c1)OCO2` returned a melting point of 170 °C.

`ClCC=Cc1ccccc1` gave a melting point of -19 °C.

Take `Cc1ccc(CCl)c2ccccc12`: the melting point was in the range of 58 to 60 °C.

The compound `COc1cc2nc(N3CCN(C(=O)C4CCCO4)CC3)nc(N)c2cc1OC` (centres undefined) displayed a melting point of 273 °C.

On to `N#CCC(=O)c1ccco1`, for which the melting point lay within 81 to 83 °C.

`COC(=O)C1=C(C)NC(C)=C(C(=O)On2nnc3ccccc32)[C@H]1c1ccc([N+](=O)[O-])cc1`: the melting point was 217 °C.

For the compound `S=C1NCCN1`, the melting point came out at 203 °C.

For the compound `O=c1c2ccccc2nc2n1CCC2O` (centres undefined), the melting point came to 210 °C.

With `Cc1ccccc1NN=C1C(=O)CC(C)(C)CC1=O`, the melting point amounted to 109 °C.

Regarding `C(=C(/c1ccccc1)c1nc2ccccc2s1)/c1ccccc1`, the melting point was determined as 109 °C.

Regarding `Nc1ccc2ccc3ccccc3c2c1`, the melting point was 143 °C.

In turn, `O=c1[nH]nc2ccccn12` returned a melting point of 234 °C.

On to `CC(=O)C1CC1`, for which the melting point was -68.3 °C.

Consider `BrC(CCC(Br)C(Br)c1ccccc1)C(Br)c1ccccc1` (centres undefined), for which the melting point is 194 °C.

The compound `CC1CC2C3CCC4=CC(=O)C=CC4(C)C3(F)C(O)CC2(C)C1C(=O)CO` (centres undefined) registered a melting point of 217 °C.

With `CCS(=O)CC`, the melting point came out at 14 °C.

For the compound `FC(F)(F)c1cccc(-n2cc[nH]c2=S)c1`, the melting point lay in the range of 157 to 159 °C.

In turn, `CCC(C(=O)O)c1ccc(CC(C)C)cc1` (centres undefined) displayed a melting point of 52 °C.

The compound `Nc1nnc(-c2ccccc2)c(Nc2ccc(I)cc2)n1` gave a melting point of 389 °C.

Turning to `COc1ccc(OC)c2ccccc12`, the melting point was 85 to 86 °C.

For `O=C1OC(=O)c2ncccc21`, the melting point lay within 134 to 138 °C.

In turn, `CC(/C=C(\C)c1ccc(-c2ccccc2)cc1)=NNS(=O)(=O)c1ccc([N+](=O)[O-])c([N+](=O)[O-])c1` returned a melting point of 200 to 201 °C.

As for `O=C(c1noc(-c2ccc(Cl)cc2)c1S(=O)(=O)c1ccccc1)c1cccc2ccccc12`, the melting point came to 169 °C.

For the compound `O=C(C=Cc1ccc(-c2cccc([N+](=O)[O-])c2)o1)c1ccccc1`, the melting point fell in the range of 146 to 147 °C.

Consider `Fc1ccc2nc(Cl)sc2c1`, for which the melting point came to 91 °C.

The compound `CCCN(CCC)C(=O)C(CCC(=O)O)NC(=O)c1ccccc1` (centres undefined) displayed a melting point of 142 °C.

`OC(c1ccc(F)cc1)(c1ccc(F)cc1)c1ccc(F)cc1` gave a melting point of 92 °C.

The compound `CC(=O)c1csc(-c2ccc(C(F)(F)F)cc2)n1` registered a melting point of 66 °C.

On to `CNNC`, for which the melting point was -9 °C.

`CC(C)(C)C(=O)OCOC(=O)C1N2C(=O)C(N=CN3CCCCCC3)C2SC1(C)C` (centres undefined): the melting point was determined as 119 °C.

Compound `CC(Nc1ccccn1)=C(C#N)C(=O)c1ccccc1` had a melting point of 151 to 152 °C.

Take `O=C(O)C#Cc1cc(Br)cc(/C=C/C(=O)O)c1`: the melting point is 161 °C.

The compound `O=C(C=Cc1ccsc1)c1ccccc1` showed a melting point of 88 °C.

In turn, `O=C(O)Cc1ccc(Cl)cc1C(F)(F)F` gave a melting point of 89 °C.

`CC1C(=O)C23C(O)CC4C(C)(C)CC(O)CC4(C)C2CCC1C3O` (centres undefined) returned a melting point of 377 °C.

The compound `CS(=O)(=O)c1noc(-c2cccs2)c1C#N` gave a melting point of 167 to 168 °C.

`O=C(O)c1ccc(C(=O)C(F)(F)F)cc1` came in with a melting point of 178 to 181 °C.

In turn, `O=c1[nH]cccc1[N+](=O)[O-]` showed a melting point of 232 °C.

Compound `C1=CCCC=CCC1` registered a melting point of -56.4 °C.
